Data published in patent US20110086035A1, “IMMUNOTHERAPEUTIC METHODS AND MOLECULES” (priority 2008, published 2011).
Read-outs that look alike come from different tables or passages of the source.

B1: recombinant Asp f1-H136L protein: FLAG-tagged recombinant A. fumigatus Asp f1 ribotoxin with point mutation His136Leu, without leader sequence (protein, UniProt P67875 28-176, looked up, variant H136L)
Ribonuclease mitogillin: ATWTCINQQLNPKTNKWEDKRLLYSQAKAESNSHHAPLSDGKTGSSYPHWFTNGYDGNGKLIKGRTPIKFGKADCDRPPKHSQNGMGKDDHYLLEFPTFPDGHDYKFDSKKPKEDPGPARVIYTYPNKVFCGIVALQRGNQGDLRLCSH
modifications: FLAG tag

How the values were obtained:
[1] = system: Asp f16-specific T cell lines of HLA-DRB1*04-positive donors; assay: Restimulation of Asp f16-specific T cell lines with peptide-pulsed autologous monocytes, IFN-γ ELISA; type: cell-based, human; conditions: T cell lines of 3 HLA-DRB1*04-positive donors; monocytes pulsed with 1 μg/ml peptide; 24 h; FIG. 2B
Description: (§1) Antigen-specific T cell lines were generated by incubation of 1×10^7 whole PBMC per well in 6-well cell culture plates with 5 μg/ml recombinant protein or 1 μg/ml peptide antigen for 7 days. Lymphocyte cultures were supplemented with 5 U/ml IL-2 (Proleukin, Chiron, Ratingen, Germany) every other day and culture medium replenished as needed.
(§2) Autologous monocytes were isolated from whole PBMC by allowing cells to adhere to tissue culture dishes for 2 hours and subsequent extensive washing to remove non-adherent cells. For presentation of protein antigen, monocytes were cultured overnight in the presence of 5 μg/ml recombinant protein and harvested by mechanical abrasion the next day. For presentation of peptide antigen, monocytes were incubated overnight without antigen and mature cells harvested and pulsed with 1 μg/ml peptide antigen for 1 hour. Transduced autologous B cells were used as antigen-presenting cells (APC) after repeated culture on gamma-irradiated human CD40L-transfected feeder cells. […]
(§3) In order to define a common MHC class II epitope of the Asp f16 protein, lymphocyte donors were screened for the expression of the most abundant MHC class II allele HLA-DRB1*04 and Asp f16-specific T cell lines generated as described. […] All T cell cultures were then exposed to both peptide and recombinant protein for 24 hours and IFN-γ production quantified.

[2] = system: FHT-specific CD4+ T cell clones; assay: Restimulation of FHT-specific CD4+ T cell clones with antigen-loaded dendritic cells, IFN-γ ELISA; type: cell-based, human
Description: For generation of antigen-specific T cell clones PBMC were stimulated repeatedly with 1 μg/ml FHT peptide once weekly for 4 weeks. Subsequently T cell clones were generated by limiting dilution in 96-well plates and expanded using the rapid expansion protocol as described by Beck et al^14. A CMVpp65-specific CD4^+ T cell clone used in control experiments was generated accordingly by limiting dilution of T cells stimulated with pp65 peptide antigen (kindly provided by Jan Diekmann).
(§4) Dendritic cells (DC) were generated from monocytes by addition of 500 U/ml GM-CSF (PromoCell, Heidelberg, Germany) and 700 U/ml IL-4 (R&D systems, Wiesbaden-Nordenstadt, Germany) to the culture medium. Immature dendritic cells were incubated for 24 hours with either live A. fumigatus or C. albicans conidia or fungus killed by treatment with ethanol 0, 4, 8 or 12 hours after germination and subsequently co-incubated, with Aspergillus peptide-specific T cell clones for further 24 hours. Dendritic cells used for presentation of protein or peptide antigen were induced to mature by addition of 25 ng/ml TNF-α, 5 ng/ml IL-1β, 10 ng/ml IL-6 (all R&D systems, Wiesbaden-Nordenstadt, Germany) and 1 μg/ml PGE2 (Pharmacia, Ratingen, Germany) prior to antigen-pulsing and co-incubation with antigen-specific T cells. […]

T cell clones = assay: IFNg ELISA of T cell clones stimulated with FHT peptide or FHT loaded HLA restricted LCL; type: cell-based, human; conditions: in all but one of the clones; FIG. 8
Description: FIG. 8. […] Using limiting dilution, individual T cell clones were generated. Following expansion, the clones were either left un-stimulated, stimulated with FHT peptide or stimulated with HLA restricted FHT loaded LCL. IFNg production was then measured in a standard ELISA.
(§5) Using limiting dilution, individual T cell clones were generated. Following expansion, the clones were either left un-stimulated, stimulated with FHT peptide or stimulated with HLA restricted FHT loaded LCL. IFNg production was then measured in a standard ELISA.

HLA-DRB1*04 = assay: Binding to HLA-DRB1*04; set-up: species or system human
From the text: Whether or not a peptide binds to HLA-DRB1*04 may be determined using any method known in the art. A suitable method is shown in Example 1, with particular reference to FIG. 2B. One method is to introduce the peptide into PBMCs taken from an HLA-DRB1*04 human and determine whether an activating or proliferative response is obtained which is indicative of binding. Binding to HLA-DRB1*04 may also be assessed using the methods described in FIGS. 7 and 8.
as §5

[3] = system: PBMC from HLA-DRB1*04-positive donors; assay: Criss-cross restimulation of T cell lines generated with FHT peptide or recombinant Asp f16 protein, IFN-γ; type: cell-based, human; conditions: lines generated for one week with peptide or protein, exposed to both for 24 hours; FIG. 2C
Description: as §1, §2, §3

T cells specific for FHT = assay: DRB1*0401/FHT multimer staining of FHT-expanded cell lines; type: cell-based, human; conditions: PBMC of 3 donors (two DRB1*0401, one DRB1*0408) expanded 14 or 21 days; FHT bound to multimer of DRB1*0401; FIG. 7
From the text: FIG. 7. Cell lines expanded using the FHT peptide contain T cells that bind specifically to the FHT peptide in the context of DRB1*0401. PBMC from 3 different donors were expanded with the FHT peptide for 14 or 21 days (IVS—In vitro stimulation). Two of the donors were DRB1*0401 positive and one was DRB1*0408 positive.
PBMC from 3 different donors were expanded with the FHT peptide for 14 or 21 days (IVS—In vitro stimulation). Two of the donors were DRB1*0401 positive and one was DRB1*0408 positive.

A. fumigatus conidia = assay: Confrontation assay: killing of A. fumigatus conidia by monocytes pre-incubated with T cell supernatant; type: cell-based, Aspergillus fumigatus; conditions: monocytes pre-incubated with supernatant of T cell clones activated with FHT peptide-pulsed APC; 3 hours; FIG. 5
Description: as §4, with “cells. In one experiment the antigen-presenting dendritic cells fed with live Aspergillus conidia were incubated with either 25 μg/ml control antibody or MHC class II blocking antibody (No 555556, BD Biosciences, Heidelberg, Germany) for 1 hour prior to addition of the T cells. Antibody also remained present during the 24 hours co-incubation of T cells with antigen-presenting DC.” for “cells.”
Killing of A. fumigatus conidia by monocytes was quantified using confrontation assays. […] Each experimental setting was determined in quadruple. […] Colonies were quantified after incubation at 37° C. over night. […]

PBMC from healthy donors = assay: Restimulation of T cell lines generated with recombinant protein, IFN-γ ELISA; type: cell-based, human; conditions: PBMC of 4 healthy donors; significant = at least 50 pg/ml and/or more than 5-fold increase over unstimulated; FIG. 1A/1B
Description: Blood was obtained from HLA-DRB1*-typed healthy donors after informed consent. Peripheral blood mononuclear cells (PBMC) were isolated via centrifugation in Biocoll Separating Solution (Biochrom, Berlin, Germany) and either used directly after preparation or cryopreserved for later use. Cells were cultured in RPMI 1640 with L-Glutamine (Invitrogen, Karlsruhe, Germany), supplemented with 10% heat-inactivated, pooled human serum and 100 U/ml Penicillin-Streptomycin (Invitrogen, Karlsruhe, Germany).
as §1
Autologous monocytes were isolated from whole PBMC by allowing cells to adhere to tissue culture dishes for 2 hours and subsequent extensive washing to remove non-adherent cells. […]
PBMC from 4 different healthy donors, were stimulated for 7 days with purified recombinant Asp f1-H136L or Asp f16 protein. The generated T cell lines were then re-exposed for 24 hours to both proteins and the amount of secreted IFN-γ quantified in the supernatant by IFN-γ ELISA. […]

phoenix GALV = type: cell-based, human; conditions: point mutation His136Leu versus Asp f1
From the text: The gene encoding the A. fumigatus Asp f16 protein (NCBI accession number AY169706) was cloned into the eukaryotic expression vector pcDNA3.1-TOPO (Invitrogen, Karlsruhe, Germany) with N- and C-terminal FLAG®-Tag (Sigma-Aldrich, Muenchen, Germany). The gene was amplified from cDNA kindly provided by Utz Reichard (University of Goettingen, Germany). The gene encoding Asp f1 protein (NCBI accession number M83781) was cloned accordingly, omitting the leader sequence (cDNA kindly provided by Prof. Dr. Stefan Stevanović, University of Tuebingen, Germany).
pcDNA3.1-aspf16-FLAG and pcDNA3.1-aspf1-H136L-FLAG expression vector was introduced into the transgenic human cell line phoenix GALV^20 via calcium phosphate transfection. Parental as well as transfected producer cells were cultivated in DMEM medium (Invitrogen, Karlsruhe, Germany) supplemented with 10% heat-inactivated fetal calf serum (FCS, Biochrom, Berlin, Germany) and 100 U/ml Penicillin-Streptomycin (Invitrogen, Karlsruhe, Germany). 24 hours after transfection transgene expression from the CMV promoter of the expression vector was enhanced by addition of 1 mM sodium butyrate (Sigma-Aldrich, Muenchen, Germany) to the culture medium^21.
Recombinant Asp f1 and Asp f16 proteins were produced in a eukaryotic expression system and purified by standard methods via introduced FLAG-Tags. […]

| Molecule | IFN-γ production in response to peptide [1] | IFN-γ production of FHT-specific CD4+ T cell clones in response to DC ([2]; autologous DC pulsed with synthetic peptide, 24 h, FIG. 3A) | IFNg production with FHT loaded HLA restricted LCL compared to peptide alone (T cell clones) | binding to HLA-DRB1*04 (HLA-DRB1*04) | binding to HLA-DRB1*04 (HLA-DRB1*04; listed as FHT) | specific cytokine (IFN-γ) production after restimulation with peptide and recombinant protein [3] | detection of FHT specific T cells by multimer staining (T cells specific for FHT) | fungal survival after phagocytosis by monocytes (A. fumigatus conidia) | IFN-γ after one week of stimulation and 24 h re-exposure to recombinant protein (PBMC from healthy donors) | cytotoxicity in the producing cell line (phoenix GALV) | cross-reactivity of Asp f16-specific CD4+ TH1 T cell clones to pulsed APC ([2]; APC pulsed with purified protein) |
| --- | --- | --- | --- | --- | --- | --- | --- | --- | --- | --- | --- |
| FHTYTIDWTKDAVTW [FHT peptide] | abundant production of IFN-γ | high amounts of IFN-γ | greatly increased specific cytokine production | has been shown to bind to HLA-DRB1*04 | specifically binds HLADRB1*04 | specific cytokine production could be detected | can be detected by DRB1*0401/FHT multimer staining | significantly reduce fungal survival |  |  |  |
| B1 |  |  |  |  |  |  |  |  | only one of 4 donors responded robustly | nearly abolished cytotoxicity | not cross-reactive |
